Test results: patent US10905682B2, “Use of mitochondrial iron chelators for treatment of chronic obstructive pulmonary disease” (Cornell University, priority 2015, dated 2021)

Tests used:
Assay type in all cases: in vivo, mouse
[1] = system: lung mitochondrial non-heme iron; assay: Lung mitochondrial non-heme iron in CS-exposed mice; details: WT mice, CS 6 or 8 weeks, DFP after 4 weeks of CS, versus CS without DFP; FIG. 6e
Protocol: In vivo CS exposures, chemical treatments and diet modifications. Age- and sex-matched mice, starting at 6-12 weeks of age, were selected at random and exposed to total body CS in a stainless steel chamber using a whole-body smoke exposure device (Model TE-10 Teague Enterprises) for 2 hours per day, 5 days per week for 4 weeks or 4-6 months. Age-matched male and female mice were used for all CS exposures. Mice were exposed to CS (mainstream and side stream smoke) from 100 3R4F cigarettes (University of Kentucky), which correlated to an average total particulate matter (TPM) of 150 mg/m^3. For animals subjected to cigarette smoke exposure, early death was used as an exclusion criterion. […]
(§1) Mice exposed to CS for 4 weeks had modifications to their dietary iron as follows: Diet 1 (Control Diet) from Harlan Laboratories (TD.94045 AIN-93G), which contained 300-ppm iron. […] Animals were weighed weekly and the quantity of chow consumed was recorded compared to mice on a normal iron diet. […] Animals were checked daily and the quantity of water consumed compared to control mice. […]
Measurement of mitochondrial membrane potential and Cytochrome C oxidase activity. Mitochondrial-enriched fractions were isolated from the lungs of mice and JC1 uptake measured using the MITOISO1 mitochondrial isolation kit (Sigma Aldrich). […]

mice exposed to CS [2] = assay: CS-induced impairment of mucociliary clearance (MCC), CS-induced bronchitis model
Protocol: (§2) In vivo CS exposures, chemical treatments and diet modifications. Age- and sex-matched mice, starting at 6-12 weeks of age, were selected at random and exposed to total body CS in a stainless steel chamber using a whole-body smoke exposure device (Model TE-10 Teague Enterprises) for 2 hours per day, 5 days per week for 4 weeks or 4-6 months. Age-matched male and female mice were used for all CS exposures. Mice were exposed to CS (mainstream and side stream smoke) from 100 3R4F cigarettes (University of Kentucky), which correlated to an average total particulate matter (TPM) of 150 mg/m^3. For animals subjected to cigarette smoke exposure, early death was used as an exclusion criterion. At the end of the exposure regimen, mice were euthanized by CO2 narcosis, the tracheas cannulated and the lungs inflated with PBS at 25 cm of H2O pressure. The left lung was tied off with a suture, dissected and flash frozen and the right lung fixed in 4% formalin at 4° C. overnight. A proximal portion of the left lung (4 month exposures only) was fixed for transmission electron microscopy (TEM) analysis.
Mice exposed to CS for 4 weeks had modifications to their dietary iron as follows: Diet 1 (Control Diet) from Harlan Laboratories (TD.94045 AIN-93G), which contained 300-ppm iron. Diet 2 (iron deficient diet) from Harlan Laboratories (TD.10210), which contained 2-6 ppm iron. […] Animals were weighed weekly and the quantity of chow consumed was recorded compared to mice on a normal iron diet. […] Animals were checked daily and the quantity of water consumed compared to control mice. […]
Assessment of Mucociliary Clearance. Mucociliary clearance was quantified using a non-invasive, oropharyngeal aspiration procedure (Lam et al., The Journal of clinical investigation 123(12), 5212-5230 (2013)). […] Whole mouse 3D μ- single-photon emission computed tomography (SPECT) images from 10 minute acquisitions at 0, 1, and 3 hour time points were obtained, reconstructed, blindly analyzed and expressed as the percent removed by mucociliary clearance. […]

mice exposed to CS [3] = assay: BAL leukocyte counts, BALF protein and IL-33/IL-6 ELISA in CS-induced pulmonary inflammation and injury; details: WT mice, 4 weeks CS then DFP during additional 2 or 4 weeks of CS, versus CS without DFP
Protocol: as §2
Mice exposed to CS for 4 weeks had modifications to their dietary iron as follows: Diet 1 (Control Diet) from Harlan Laboratories (TD.94045 AIN-93G), which contained 300-ppm iron. Diet 2 (iron deficient diet) from Harlan Laboratories (TD.10210), which contained 2-6 ppm iron. Diet 3 (iron replete Diet) from Harlan Laboratories (TD.10213), which contained 2% carbonyl iron. Iron diets were exchanged for normal diets upon weaning at 3 weeks of age and used throughout the smoke exposures. Animals were weighed weekly and the quantity of chow consumed was recorded compared to mice on a normal iron diet. Deferiprone or FERRIPROX® solution (1mg/m1) (ApoPharma Inc.) was administered prophylactically in the animals' drinking water for the duration of smoke exposure. Deferiprone was also administered therapeutically in the animals' drinking water initiating therapy after 4 weeks of smoke exposure and continuing therapy for an additional 2-4 weeks. Animals were checked daily and the quantity of water consumed compared to control mice. Water solutions were changed twice weekly.
BALF isolation, cell counts and ELISA. Mice were euthanized by CO2 narcosis, the tracheas cannulated and the lungs lavaged with 0.5 ml increments of ice-cold PBS eight times (4 ml total). BALF was centrifuged at 500×g for 5 minutes. […] The cell pellet was resuspended in 500 μl PBS and leukocytes were counted using a hemocytometer. […] The percentage of macrophages, lymphocytes and polymorphonuclear leukocytes (PMNs) were counted in a total of 300 cells, and absolute numbers of each leukocyte subset were calculated. […]

mice exposed to CS [4] = assay: Weight gain of CS-exposed mice treated with DFP; details: WT mice, CS 6 or 8 weeks, DFP after 4 weeks of CS, versus CS without DFP; FIG. 6d
Protocol: as §2, with “A proximal portion of the left lung (4 month exposures only) was fixed for transmission electron microscopy (TEM) analysis.” left out
as §1

Cc1c(O)c(=O)ccn1C [DFP, Deferiprone]
lung mitochondrial iron loading [1]: lower lung mitochondrial iron loading
CS-induced MCC impairment, DFP combined with IRP2 deficiency (mice exposed to CS [2]; DFP-treated Irp2-/- mice versus DFP or Irp2-/- alone, CS 1 month, FIG. 6c): better protection from CS-induced MCC impairment than DFP or Irp2−/− alone
CS-induced MCC impairment (mice exposed to CS [2]; prophylactic: DFP in drinking water for the duration of CS-exposure (1 month), WT mice, FIG. 6c): protected mice from CS-induced MCC impairment
experimental COPD (overall) (mice exposed to CS [2]; summary statement, CS-exposed mice): alleviated experimental COPD
BAL total leukocyte counts (pulmonary inflammation) (mice exposed to CS [3]; FIG. 6f): significant reductions
total BALF protein (acute lung injury) (mice exposed to CS [3]; FIG. 6g): significant reductions
BALF IL-6 protein concentration (pulmonary inflammation) (mice exposed to CS [3]; FIG. 16e): significant reductions
BALF IL-33 protein concentration (pulmonary inflammation) (mice exposed to CS [3]; FIG. 16d): significant reductions
weight gain (mice exposed to CS [4]): improved weight gain
